Measured values reported in paper PMC9851200, “Multiparameter phenotypic screening for endogenous TFEB and TFE3 translocation identifies novel chemical series modulating lysosome function” (Autophagy, 2022).

Legend:
Assay type in all cases: binding
[1] = molecular target: kinases (KINOMEscan panel) (Homo sapiens, UniProt P42684); details: ABL2; NEW KINOMEscan
[2] = molecular target: T1, kinases (KINOMEscan panel) (Homo sapiens, UniProt Q92772); details: CDKL2; NEW KINOMEscan
T1 sequence (Q92772 1-493): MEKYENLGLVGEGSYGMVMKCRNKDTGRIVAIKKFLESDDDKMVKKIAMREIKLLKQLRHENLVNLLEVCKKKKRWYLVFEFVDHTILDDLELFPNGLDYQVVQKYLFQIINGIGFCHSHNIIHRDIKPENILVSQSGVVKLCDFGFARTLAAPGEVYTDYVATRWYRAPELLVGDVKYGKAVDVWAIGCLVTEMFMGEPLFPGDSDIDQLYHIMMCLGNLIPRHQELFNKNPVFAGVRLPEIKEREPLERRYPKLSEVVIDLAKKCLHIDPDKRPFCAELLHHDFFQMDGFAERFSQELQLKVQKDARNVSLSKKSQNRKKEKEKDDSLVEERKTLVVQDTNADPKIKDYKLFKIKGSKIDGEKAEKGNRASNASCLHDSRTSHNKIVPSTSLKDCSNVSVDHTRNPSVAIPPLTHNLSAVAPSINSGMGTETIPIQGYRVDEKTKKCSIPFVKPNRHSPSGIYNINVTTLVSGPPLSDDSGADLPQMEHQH

[3] = molecular target: kinases (KINOMEscan panel) (Homo sapiens, UniProt P22455); details: NEW KINOMEscan
[4] = molecular target: T2, kinases (KINOMEscan panel) (Homo sapiens, UniProt Q59H18); details: kinase TNNI3K; NEW KINOMEscan
T2 sequence (Q59H18 1-835): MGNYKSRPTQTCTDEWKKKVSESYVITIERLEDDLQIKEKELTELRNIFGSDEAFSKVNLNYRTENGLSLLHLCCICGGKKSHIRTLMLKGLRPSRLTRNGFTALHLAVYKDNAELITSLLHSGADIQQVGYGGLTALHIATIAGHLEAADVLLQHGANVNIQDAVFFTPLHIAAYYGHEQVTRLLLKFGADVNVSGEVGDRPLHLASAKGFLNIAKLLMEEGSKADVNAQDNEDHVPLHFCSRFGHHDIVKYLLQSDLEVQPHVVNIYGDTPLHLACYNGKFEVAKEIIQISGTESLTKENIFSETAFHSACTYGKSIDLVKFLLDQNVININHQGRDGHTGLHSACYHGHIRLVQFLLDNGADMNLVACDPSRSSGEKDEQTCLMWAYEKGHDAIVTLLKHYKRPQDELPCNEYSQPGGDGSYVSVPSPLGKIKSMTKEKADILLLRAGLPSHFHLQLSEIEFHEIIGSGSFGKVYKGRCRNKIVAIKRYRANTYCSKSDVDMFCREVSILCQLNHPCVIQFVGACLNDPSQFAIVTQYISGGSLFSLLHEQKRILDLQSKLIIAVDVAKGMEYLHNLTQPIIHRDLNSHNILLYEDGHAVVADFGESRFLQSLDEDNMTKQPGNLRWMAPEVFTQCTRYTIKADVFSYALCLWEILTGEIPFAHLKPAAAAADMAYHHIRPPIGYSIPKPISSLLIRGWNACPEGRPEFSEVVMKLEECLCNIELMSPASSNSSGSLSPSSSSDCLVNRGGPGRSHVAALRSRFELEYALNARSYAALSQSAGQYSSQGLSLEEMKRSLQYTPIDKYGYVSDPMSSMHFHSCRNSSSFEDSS

[5] = molecular target: T3, kinases (KINOMEscan panel) (Homo sapiens, UniProt P25098); details: NEW KINOMEscan
T3 sequence (P25098 1-689): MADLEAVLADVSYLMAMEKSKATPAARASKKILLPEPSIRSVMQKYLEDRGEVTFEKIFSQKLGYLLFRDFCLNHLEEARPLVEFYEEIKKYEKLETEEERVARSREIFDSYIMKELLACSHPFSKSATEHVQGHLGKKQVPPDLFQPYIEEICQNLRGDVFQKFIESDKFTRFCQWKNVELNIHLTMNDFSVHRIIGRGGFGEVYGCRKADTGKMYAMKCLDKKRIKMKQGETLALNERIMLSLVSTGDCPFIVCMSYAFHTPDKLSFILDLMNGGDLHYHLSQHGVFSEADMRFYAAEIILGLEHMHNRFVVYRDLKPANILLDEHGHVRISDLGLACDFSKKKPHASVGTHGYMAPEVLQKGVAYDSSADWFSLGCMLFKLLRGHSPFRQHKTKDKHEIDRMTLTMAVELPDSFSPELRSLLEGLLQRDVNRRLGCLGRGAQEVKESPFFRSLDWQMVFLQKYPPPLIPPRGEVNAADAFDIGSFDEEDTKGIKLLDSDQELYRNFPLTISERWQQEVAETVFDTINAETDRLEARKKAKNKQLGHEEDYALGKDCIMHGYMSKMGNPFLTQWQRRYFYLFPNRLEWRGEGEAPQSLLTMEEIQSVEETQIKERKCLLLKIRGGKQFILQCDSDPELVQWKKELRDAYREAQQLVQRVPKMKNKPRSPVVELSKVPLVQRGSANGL

[6] = molecular target: kinases (KINOMEscan panel) (Homo sapiens, UniProt P49760); details: kinase CLK2; NEW KINOMEscan
Sequence of kinases (KINOMEscan panel) (Homo sapiens, UniProt P49760) (P49760 whole entry): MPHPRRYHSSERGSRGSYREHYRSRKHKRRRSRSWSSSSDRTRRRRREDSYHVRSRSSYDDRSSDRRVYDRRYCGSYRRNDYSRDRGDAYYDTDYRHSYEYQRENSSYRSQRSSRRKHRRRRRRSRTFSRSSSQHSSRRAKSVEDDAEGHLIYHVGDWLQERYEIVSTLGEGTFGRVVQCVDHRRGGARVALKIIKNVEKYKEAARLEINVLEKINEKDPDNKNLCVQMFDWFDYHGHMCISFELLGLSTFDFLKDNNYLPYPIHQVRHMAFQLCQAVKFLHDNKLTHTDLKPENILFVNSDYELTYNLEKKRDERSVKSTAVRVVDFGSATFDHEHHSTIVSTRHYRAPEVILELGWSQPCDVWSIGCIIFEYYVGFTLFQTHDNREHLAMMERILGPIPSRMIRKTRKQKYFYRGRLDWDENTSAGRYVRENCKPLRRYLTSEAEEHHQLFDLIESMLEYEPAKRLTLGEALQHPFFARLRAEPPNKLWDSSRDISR

Sequence of kinases (KINOMEscan panel) (Homo sapiens, UniProt P22455) (P22455 22-802): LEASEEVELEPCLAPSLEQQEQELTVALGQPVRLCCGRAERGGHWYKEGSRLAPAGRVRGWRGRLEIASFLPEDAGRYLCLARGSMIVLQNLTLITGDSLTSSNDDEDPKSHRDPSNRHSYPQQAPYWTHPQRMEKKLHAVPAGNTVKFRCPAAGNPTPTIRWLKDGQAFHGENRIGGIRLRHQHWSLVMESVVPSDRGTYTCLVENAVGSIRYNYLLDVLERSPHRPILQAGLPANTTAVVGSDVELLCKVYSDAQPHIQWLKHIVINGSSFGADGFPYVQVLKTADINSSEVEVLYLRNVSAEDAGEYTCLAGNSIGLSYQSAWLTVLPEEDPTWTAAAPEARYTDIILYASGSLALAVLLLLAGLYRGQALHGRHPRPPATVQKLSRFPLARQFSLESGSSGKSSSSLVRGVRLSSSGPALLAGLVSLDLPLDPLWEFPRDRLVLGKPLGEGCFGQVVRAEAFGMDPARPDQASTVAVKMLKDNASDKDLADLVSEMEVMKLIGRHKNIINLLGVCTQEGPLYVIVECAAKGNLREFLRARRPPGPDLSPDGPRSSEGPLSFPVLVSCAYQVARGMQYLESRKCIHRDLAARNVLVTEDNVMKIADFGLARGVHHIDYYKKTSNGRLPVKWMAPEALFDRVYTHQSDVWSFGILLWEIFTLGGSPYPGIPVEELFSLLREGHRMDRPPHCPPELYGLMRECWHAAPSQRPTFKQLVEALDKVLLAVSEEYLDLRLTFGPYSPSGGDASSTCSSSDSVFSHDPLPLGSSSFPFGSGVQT
Sequence of kinases (KINOMEscan panel) (Homo sapiens, UniProt P42684) (P42684 whole entry): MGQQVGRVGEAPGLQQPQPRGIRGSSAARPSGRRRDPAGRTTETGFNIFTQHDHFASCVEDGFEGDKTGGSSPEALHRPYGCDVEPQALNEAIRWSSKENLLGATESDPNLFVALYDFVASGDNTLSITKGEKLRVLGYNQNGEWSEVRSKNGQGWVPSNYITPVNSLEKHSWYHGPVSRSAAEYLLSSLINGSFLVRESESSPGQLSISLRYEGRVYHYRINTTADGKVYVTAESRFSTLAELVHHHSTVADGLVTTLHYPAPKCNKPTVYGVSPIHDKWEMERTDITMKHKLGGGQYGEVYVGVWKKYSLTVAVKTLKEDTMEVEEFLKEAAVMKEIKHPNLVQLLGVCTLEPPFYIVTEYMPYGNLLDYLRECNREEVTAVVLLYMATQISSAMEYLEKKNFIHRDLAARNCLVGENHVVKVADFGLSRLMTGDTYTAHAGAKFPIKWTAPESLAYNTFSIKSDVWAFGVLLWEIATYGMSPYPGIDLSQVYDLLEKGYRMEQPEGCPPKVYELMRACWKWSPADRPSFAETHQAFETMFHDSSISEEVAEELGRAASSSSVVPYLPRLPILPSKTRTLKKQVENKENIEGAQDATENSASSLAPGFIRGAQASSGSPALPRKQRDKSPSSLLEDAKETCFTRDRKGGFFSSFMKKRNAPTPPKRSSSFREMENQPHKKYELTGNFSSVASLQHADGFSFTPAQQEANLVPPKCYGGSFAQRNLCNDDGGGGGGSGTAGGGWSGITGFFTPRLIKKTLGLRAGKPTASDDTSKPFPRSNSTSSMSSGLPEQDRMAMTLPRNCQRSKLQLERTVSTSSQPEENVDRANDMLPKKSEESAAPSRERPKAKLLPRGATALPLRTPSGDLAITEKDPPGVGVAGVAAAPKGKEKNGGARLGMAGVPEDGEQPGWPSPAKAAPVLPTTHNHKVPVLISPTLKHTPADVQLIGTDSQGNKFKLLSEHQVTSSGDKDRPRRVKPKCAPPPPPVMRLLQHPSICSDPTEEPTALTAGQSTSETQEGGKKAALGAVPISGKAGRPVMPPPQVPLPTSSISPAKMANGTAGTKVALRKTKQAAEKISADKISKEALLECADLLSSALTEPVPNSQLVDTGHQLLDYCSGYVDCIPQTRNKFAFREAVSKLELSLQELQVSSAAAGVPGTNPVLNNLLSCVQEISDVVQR

| Structure (SMILES) | KINOMEscan ABL2 [1] | KINOMEscan CDKL2 [2] | KINOMEscan FGFR4 [3] | KINOMEscan TNNI3K [4] | KINOMEscan GRK2 [5] | KINOMEscan CLK2 [6] |
| --- | --- | --- | --- | --- | --- | --- |
| Cc1cccc(-c2nc(Nc3ccc4nn(C)cc4c3)c3ccccc3n2)n1 [NK167] | 0 | 0 | 16 | 6 | 0 | 0 |
| Cc1cccc(-c2nc(N(C)c3ccc4ncsc4c3)c3ccccc3n2)n1 [NK-161] | 8 | 0 | 19 | 9 | 9 | 0 |
